For six compounds, Activity, MIC and EC50 results are on record in ChEMBL document CHEMBL5143624, “WCK 1152, WCK 1153: Discovery and structure activity relationship for the treatment of resistant pneumococcal and staphylococcal respiratory infections” (Bioorg Med Chem Lett, 2022).

≈ marks a conversion by molar mass, not a printed value.

Data set [1] is described as follows: Mutagenicity in Swiss mouse assessed as chromosomal aberration in bone marrow cells at 400 mg/kg, po measured after 24 hrs relative to control. Type of data set: toxicity, organism-based. The note with it: in vivo.
For data set [2], the system named is Staphylococcus aureus. As to the kind of experiment: Antibacterial activity against methicillin resistant Staphylococcus aureus assessed as inhibition of bacterial growth incubated for 18 hrs by CLSI based serial agar dilution method. Type of data set: functional. As to conditions: Staphylococcus aureus, read-out: MIC. For orientation: In agar dilution the substance is mixed into plates at graded concentrations.

In data set [3] the test system is Staphylococcus aureus. In words: Antibacterial activity against methicillin resistant Staphylococcus aureus 032 assessed as inhibition of bacterial growth incubated for 18 hrs by CLSI based serial agar dilution method. Type of data set: functional.
Data set [4] relates to Staphylococcus aureus. In words: Antibacterial activity against methicillin resistant Staphylococcus aureus 5076 harbouring DNA gyrase and topoisomerase IV mutant and efflux pump assessed as inhibition of bacterial growth incubated for 18 hrs in presence of efflux inhibitor by CLSI based serial agar dilution method. Type of data set: functional.
Data set [5] deals with Streptococcus pneumoniae. In words: Antibacterial activity against beta-lactams, macrolide and fluoroquinolone resistant Streptococcus pneumoniae 718 infected in po dosed Swiss mouse septicemia model assessed as protective dose administered on 1 and 5 hrs post infection and measured on day 7. Type of data set: functional, organism-based.
Data set [6] has as its system Streptococcus pneumoniae. In words: Antibacterial activity against beta-lactams, macrolide and fluoroquinolone resistant Streptococcus pneumoniae 718 assessed as inhibition of bacterial growth incubated for 18 hrs by CLSI based serial agar dilution method. Type of data set: functional.
Data set [7] relates to Staphylococcus aureus. In words: Antibacterial activity against Staphylococcus aureus […] assessed as inhibition of bacterial growth incubated for 18 hrs by CLSI based serial agar dilution method. The class given is functional.
The subject of data set [8] is Staphylococcus aureus. As to the kind of experiment: Antibacterial activity against methicillin resistant Staphylococcus aureus 5076 assessed as inhibition of bacterial growth incubated for 18 hrs by CLSI based serial agar dilution method. The class given is functional.
Data set [9] is described as follows: Induction of drug resistance in methicillin resistant Staphylococcus aureus assessed as increase in MIC measured after 10 passages (reference value: 0.4 ug/ml). The class given is functional.
[10] abbreviates: Staphylococcus aureus, 032, 18 h, read-out: MIC.

The MIC is the lowest concentration found to suppress growth.

Regarding `COc1c(N2CCC(N)C(C)(C)C2)c(F)cc2c(=O)c(C(=O)O)cn(C3CC3)c12` (single isomer, unassigned; (-)), the Activity in data set [1] stood at 3.8%.

Consider `COc1c(N2CCC(N)C(C)(C)C2)c(F)cc2c(=O)c(C(=O)O)cn(C3CC3)c12` (stereo in doubt; form 1), for which the MIC in data set [2] was 0.05 µg/mL (≈ 0.124 µM); in data set [3] (setting [10]), 0.6 µg/mL (≈ 1.49 µM); in data set [4], 1.56 µg/mL. Also, in [5], the EC50 turned out to be 30 mg/kg. Also, the Activity in data set [1] was 5.83%.

As for `Cc1c(N2CCC(O)C(C)(C)C2)c(F)cc2c(=O)c(C(=O)O)cn(C3CC3)c12` (single isomer, unassigned; (+)), the minimal inhibitory concentration (MIC) in [3] (setting [10]) is 0.2 µg/mL (≈ 0.515 µM); in data set [6] (Streptococcus pneumoniae, 718, 18 h, read-out: MIC), 0.2 µg/mL (≈ 0.515 µM); in data set [7], 0.003 µg/mL (≈ 0.00772 µM); in [8] it was 0.2 µg/mL (≈ 0.515 µM); in [4], 0.2 µg/mL.

With `Cc1c(N2CCC(N)C(C)(C)C2)c(F)cc2c(=O)c(C(=O)O)cn(C3CC3)c12` (single isomer, unassigned; (-)), the MIC in data set [3] (18 h) came out at 0.4 µg/mL (≈ 1.03 µM); in [6] (18 h) it was 0.4 µg/mL (≈ 1.03 µM); in [8] it was 0.8 µg/mL (≈ 2.06 µM); in [4] it was 0.8 µg/mL. The EC50 in [5] came out at 20 mg/kg.

Regarding `COc1c(N2CCC(N)C(C)(C)C2)c(F)cc2c(=O)c(C(=O)O)cn(C3CC3)c12` (stereo in doubt; form 2), the Activity in data set [1] is reported as 12%.

Regarding `COc1c(N2C[C@@H]3CCCN[C@@H]3C2)c(F)cc2c(=O)c(C(=O)O)cn(C3CC3)c12` [MOXIFLOXACIN], the EC50 in data set [5] was over 100 mg/kg. Moreover, in data set [9], the minimum inhibitory concentration (MIC) amounted to 6.25 µg/mL.
